Test results published in patent publication US20200237759A1, “DOSAGE REGIME AND METHOD FOR TREATING PULMONARY ARTERIAL HYPERTENSION” (Altavant Sciences GmbH, priority 2019, published 2020).

What was measured:
[1] = system: plasma 5-HIAA (a PD marker of 5-HT synthesis); test: Part 2 MAD biomarker: plasma 5-HIAA change from Day 1; assay type: in vivo, human; conditions: Day 14
Text: (§1) Biomarkers were to be evaluated in Part 2 by measuring concentrations of serotonin (5-hydroxytryptamine [5-HT]) in serum and 5-hydroxyindoleacetic acid (5-HIAA) in plasma and urine. As well, the relationship of biomarkers to PK parameters was to be evaluated.
(§2) The biomarker analysis was to be based on the Biomarker Population (all subjects with evaluable biomarker measurements at baseline [Day 1 predose] and at least one after dosing [Day 7 or Day 14]).
(§3) Biomarker data were to be collected only in Part 2. The following biomarkers were to be analyzed: • Serum 5-HT • Plasma 5-HIAA • Urine 5-HIAA/24 hours (as measured, adjusted, estimated, and per gram creatinine)
The a priori primary biomarker endpoint was to be the change in plasma 5-HIAA concentration on Day 14 from Day 1.
(§4) Linear regression was to be performed using biomarker changes, absolute and relative (%), from Day 1, at predose on Day 7 or Day 14 versus AUC0-24, Cmax, and Cmin in corresponding study days. The slopes and corresponding 95% confidence intervals (CIs) were to be tabulated.
(§5) Summary statistics (mean, standard deviation [SD], median, minimum [Min], and maximum [Max]) were to be tabulated for each biomarker, by Cohort, with absolute and relative (%) changes from Day 1 predose.
(§6) The values were to be tabulated with P values testing whether the difference of changes was equal to 0.
(§7) The biomarker portion of the study was conducted in Part 2 MAD using the Biomarker Population. The biomarkers evaluated were serum 5-HT and plasma 5-HIAA, as well as urine 5-HIAA/24 hours (as measured, adjusted, estimated, and per gram creatinine). Urinary 5-HIAA was determined by a validated (21 C.F.R. 58, GLP-compliant) method using liquid chromatographic separation and tandem mass spectrometry detection.
(§8) The Biomarker Population consisted of all subjects with evaluable baseline (Day 1 predose) and at least one postdose (Day 7 or Day 14) biomarker measurements.
(§9) Biomarker data were analyzed for each KAR5585 dose separately, for all KAR5585 doses pooled, and for all placebo subjects pooled. […]

[2] = Part 1 SAD plasma pharmacokinetics of KAR5585 and KAR5417 after a single oral dose of KAR5585 (fasting; fed food effect); conditions: for AUC0-inf Geometric Mean / AUC0-tau Geometric Mean / Cmax Geometric Mean: 400 mg KAR5585 single oral dose
Procedure: Food effect was to be evaluated in Part 1, Period 2. Part 2 was permitted to begin before Part 1 was completed and, in each part, the data from each dose Cohort were to be reviewed for safety before the next dose Cohort was enrolled.
Part 1 had 6 Cohorts of 12 subjects each (for a total of 72 subjects) and Part 2 had 4 Cohorts of 12 subjects each (for a total of 48 subjects). In Part 1, the 12 subjects in Cohort 3 (400 mg) were studied twice, once under fasting conditions (Period 1) and once under fed conditions (Period 2) for food-effect assessment.
Pharmacokinetic data were to be summarized descriptively.

serum 5-HT = test: Part 2 MAD biomarker: serum 5-HT change from Day 1; assay type: in vivo, human
Text: as §1, §2, §3, §4, §5, §6, §7, §8, §9

[3] = Part 1 SAD urine pharmacokinetics (urinary excretion, renal clearance); assay type: in vivo, human
Procedure: Renal clearance of KAR5417 was calculated from the area under the plasma time concentration curve (AUC0-96) for KAR5417 and the amount of KAR5417 recovered in urine (Table 21).

urine 5-HIAA/24 hours = test: Part 2 MAD biomarker: urine 5-HIAA/24 hours change from Day 1; assay type: in vivo, human
Text: as §1, §2, §3
Linear regression was to be performed using biomarker changes, absolute and relative (%), from Day 1, at predose on Day 7 or Day 14 versus AUC0-24, Cmax, and Cmin in corresponding study days. The slopes and corresponding 95% confidence intervals (CIs) were to be tabulated. […]
as §7, with “detection. […]” for “detection.”
Biomarker data were analyzed for each KAR5585 dose separately, for all KAR5585 doses pooled, and for all placebo subjects pooled.
Urine 5 HIAA/24 hour was analyzed in 4 different manners: as measured in the 24-hour collection and (in order to correct for any collection errors) adjusted for creatinine excretion, estimated by the expected creatinine excretion for the subject (as defined in and expressed per gram creatinine. Results were similar for each of the 4 manners and are presented in this report for measured urine. Tables and figures for adjusted, estimated, and per-gram creatinine results are presented in Section 14. […]

[4] = 100 mg to 700 mg single dose, 7-fold increase in dose
[5] = 700 mg to 2000 mg single dose, 2.86-fold increase in dose
[6] = arithmetic mean, plasma KAR5417 after single oral 100 mg KAR5585, fasted, Cohort 1
[7] = arithmetic mean, plasma KAR5417 after single oral 700 mg KAR5585, fasted, Cohort 4
[8] = arithmetic mean, plasma KAR5417 after single oral 1200 mg KAR5585, fasted, Cohort 5
[9] = geometric mean, plasma KAR5417 after single oral 200 mg KAR5585, fasted, Cohort 2
[10] = geometric mean, plasma KAR5417 after single oral 400 mg KAR5585, fed, Cohort 3B
[11] = geometric mean, plasma KAR5417 after single oral 1200 mg KAR5585, fasted, Cohort 5
[12] = geometric mean, plasma KAR5417 after single oral 2000 mg KAR5585, fasted, Cohort 6
[13] = KAR5585 700 mg single oral dose

correlation of absolute and relative changes from baseline in plasma 5-HIAA with AUC0-24, Cmax, C12 and AUC0-12 [1]: significantly correlated
increase in mean Cmax ([2]; 100 mg (Cohort 1) to 700 mg (Cohort 4), 7-fold increase in dose): 7.27 fold
increase in mean AUC0-24 [2, 4]: 6.3 fold
increase in mean AUC0-inf [2, 4]: 6.8 fold
exposure (AUC0-tau and AUC0-inf) under fed relative to fasting conditions ([2]; 400 mg KAR5585 single dose): approximately 2 fold
increase in Cmax, fed relative to fasting ([2]; 400 mg KAR5585 single dose): 1.8 fold
increase in mean AUC0-inf, fed relative to fasting ([2]; 400 mg KAR5585 single dose): 1.8 fold
peak exposure (Cmax) higher under fed relative to fasting conditions ([2]; 400 mg KAR5585 single dose): approximately 1.87 fold
peak mean concentrations higher under fed relative to fasting conditions ([2]; 400 mg KAR5585 single dose): approximately 177%
tmax ([2]; 400 mg KAR5585 single dose, fasted): 4 hour postdose
increase in mean Cmax ([2]; 700 mg (Cohort 4) to 2000 mg (Cohort 6), 2.86-fold increase in dose): 1.38 fold
increase in AUC0-24 [2, 5]: 1.7 fold
increase in AUC0-inf [2, 5]: 1.81 fold
AUC0-inf Geometric Mean ([2]; Cohort 3A (Fasting)): 3280 ng·h/mL
AUC0-tau Geometric Mean ([2]; Cohort 3A (Fasting)): 3120 ng·h/mL
Cmax Geometric Mean ([2]; Cohort 3A (Fasting)): 444 ng/mL
Cmax Geometric LS Mean Ratio ([2]; Cohort 3B (Fed) versus Cohort 3A (Fasting), 400 mg KAR5585): 1.87
AUC0-inf Geometric Mean ([2]; Cohort 3B (Fed)): 6630 ng·h/mL
AUC0-tau Geometric Mean ([2]; Cohort 3B (Fed)): 6360 ng·h/mL
Cmax Geometric Mean ([2]; Cohort 3B (Fed)): 831 ng/mL
time by which all subjects had measurable concentrations ([2]; Part 1 SAD): ≤ 0.25 hours postdose
plasma concentrations relative to plasma concentrations of KAR5585 ([2]; Part 1 SAD, fasting): approximately 10 fold
AUC0-12 [2, 6]: 704 ng·h/mL
AUC0-∞ [2, 6]: 886 ng·h/mL
t1/2 [2, 6]: 4.67 h
AUC0-12 [2, 7]: 4350 ng·h/mL
AUC0-24 [2, 7]: 5310 ng·h/mL
AUC0-12 [2, 8]: 5350 ng·h/mL
Cmax [2, 8]: 896 ng/mL
AUC0-12 ([2]; arithmetic mean, plasma KAR5417 after single oral 2000 mg KAR5585, fasted, Cohort 6): 6910 ng·h/mL
AUC0-24 [2, 9]: 940 ng·h/mL
t1/2 [2, 9]: 5.29 h
AUC0-12 [2, 10]: 4170 ng·h/mL
AUC0-24 [2, 10]: 5370 ng·h/mL
AUC0-tau [2, 10]: 6360 ng·h/mL
AUC0-∞ [2, 10]: 6630 ng·h/mL
Cmax [2, 10]: 831 ng/mL
t1/2 [2, 10]: 19.8 h
AUC0-12 ([2]; geometric mean, plasma KAR5417 after single oral 700 mg KAR5585, fasted, Cohort 4): 3050 ng·h/mL
AUC0-tau [2, 11]: 6580 ng·h/mL
AUC0-∞ [2, 11]: 6880 ng·h/mL
Cmax [2, 11]: 764 ng/mL
t1/2 [2, 11]: 14.0 h
AUC0-12 [2, 12]: 6550 ng·h/mL
Cmax [2, 12]: 1030 ng/mL
t1/2 [2, 12]: 22.1 h
tmax ([2]; median, plasma KAR5417 after single oral 100 mg KAR5585, fasted, Cohort 1): 4.00 h
tmax ([2]; median, plasma KAR5417 after single oral 400 mg KAR5585, fed, Cohort 3B): 4.00 h
tmax ([2]; median, plasma KAR5417 after single oral 700 mg KAR5585, fasted, Cohort 4): 4.00 h
time up to which concentrations remained above the LLOQ ([2]; single 100 mg KAR5585, fasting): up to 12 hours
mean apparent terminal (elimination) half-life ([2]; single 100 mg dose of KAR5585): 4.67 h
time up to which concentrations remained above the LLOQ ([2]; single 200 mg KAR5585, fasting): ≤ 24 h
time up to which concentrations remained above the LLOQ ([2]; single 400 mg KAR5585, fasting): ≤ 36 h
time up to which concentrations remained above the LLOQ ([2]; single 700 mg KAR5585, fasting): ≤ 48 h
time up to which concentrations remained above the LLOQ ([2]; single 1200 mg KAR5585, fasting): ≤ 48 h
time up to which concentrations remained above the LLOQ ([2]; single 2000 mg KAR5585, fasting): ≤ 72 h
elimination half-life ([2]; single dose 400 mg KAR5585, Part 1 Cohort 3B): 20.5 h
correlation of change from baseline in serum 5-HT with AUC0-24, Cmax, C12 or AUC0-12 (serum 5-HT; Day 7): no significant correlations
correlation of change from baseline in serum 5-HT with AUC0-24, Cmax, C12 or AUC0-12 (serum 5-HT; Day 14): correlated
highest amount excreted in urine, of the dose ([3]; 400 mg fed Cohort (Cohort 3B)): 0.331%
Plasma AUC0-96 Mean ([3]; KAR5585 100 mg single oral dose): 889 ng·h/mL
Plasma AUC0-96 Mean ([3]; KAR5585 400 mg single oral dose, fasted): 3630 ng·h/mL
Plasma AUC0-96 Mean ([3]; KAR5585 400 mg single oral dose, fed): 6590 ng·h/mL
CLR Mean [3, 13]: 191 mL/h
Plasma AUC0-96 Mean [3, 13]: 5990 ng·h/mL
CLR Mean ([3]; KAR5585 1200 mg single oral dose): 157 mL/h
correlation of change from baseline in measured urine 5-HIAA with AUC0-24, Cmax, C12 or AUC0-12 (urine 5-HIAA/24 hours; Day 7): no significant correlations
correlation of change from baseline in measured urine 5-HIAA with AUC0-24, Cmax, C12 or AUC0-12 (urine 5-HIAA/24 hours; Day 14): significantly correlated
SMILES: Nc1nc(O[C@H](c2ccc(Cl)cc2-c2ccccc2)C(F)(F)F)cc(N2CCC3(CC2)CN[C@H](C(=O)O)C3)n1 [KAR5417, (S)-8-(2-amino-6-((R)-1-(5-chloro-[1,1′-biphenyl]-2-yl)-2,2,2-trifluoroeth-oxy)pyrimidin-4-yl)-2,8-diazaspiro[4.5]decane-3-carboxylic acid]
